Source: the NIST ThermoML archive (doi:10.1016/j.jct.2012.01.004)
Values joined by “and” are separate entries in the source; they are usually repeats but may differ in a detail not shown here. Equal values may be shown once. ± gives the expanded uncertainty stated by the source.

Legend:
[1] = activity coefficient (dimensionless); of the first substance listed, at infinite dilution; xn = mol fraction of the nth substance listed; conditions: Gas, Chromatography, x1 = 0
[2] = 323.15 K; 101.33 kPa; Liquid; Vibrating tube method

SMILES	activity coefficient ([1]; 313.15 K)	activity coefficient ([1]; 333.15 K)	activity coefficient ([1]; 353.15 K)	activity coefficient ([1]; 363.15 K)	mass density [2] [kg/m3]
C=CCCCCCCCC [1-decene] + CCCCCCCCCCCCCC[P+](CCCCCC)(CCCCCC)CCCCCC.F[P-](F)(F)(F)(F)F	2.81 and 2.79	2.29 and 2.28	1.85 and 1.83	1.74 and 1.75	–
C#CCCCCCCCC [1-decyne] + CCCCCCCCCCCCCC[P+](CCCCCC)(CCCCCC)CCCCCC.F[P-](F)(F)(F)(F)F	2.76 and 2.84	2.49 and 2.32	1.83 and 1.85	1.74 and 1.72	–
C=CCCCCC [1-heptene] + CCCCCCCCCCCCCC[P+](CCCCCC)(CCCCCC)CCCCCC.F[P-](F)(F)(F)(F)F	1.86 and 1.9	1.58 and 1.59	1.32 and 1.36	1.27 and 1.3	–
C#CCCCCC [1-heptyne] + CCCCCCCCCCCCCC[P+](CCCCCC)(CCCCCC)CCCCCC.F[P-](F)(F)(F)(F)F	1.96 and 1.8	1.59 and 1.61	1.36 and 1.32	1.3 and 1.27	–
C#CCCCC [1-hexyne] + CCCCCCCCCCCCCC[P+](CCCCCC)(CCCCCC)CCCCCC.F[P-](F)(F)(F)(F)F	1.66 and 1.71	1.42 and 1.43	1.16 and 1.24	1.16 and 1.14	–
C=CCCCCCCC [1-nonene] + CCCCCCCCCCCCCC[P+](CCCCCC)(CCCCCC)CCCCCC.F[P-](F)(F)(F)(F)F	2.4 and 2.5	2.01 and 1.98	1.62 and 1.63	1.54 and 1.55	–
C#CCCCCCCC [1-nonyne] + CCCCCCCCCCCCCC[P+](CCCCCC)(CCCCCC)CCCCCC.F[P-](F)(F)(F)(F)F	2.5 and 2.4	1.96 and 2.02	1.65 and 1.59	1.56 and 1.52	–
C#CCCCCCC [1-octyne] + CCCCCCCCCCCCCC[P+](CCCCCC)(CCCCCC)CCCCCC.F[P-](F)(F)(F)(F)F	2.19 and 2.03	1.79 and 1.75	1.44 and 1.56	1.41 and 1.46	–
C=CCCC [1-pentene] + CCCCCCCCCCCCCC[P+](CCCCCC)(CCCCCC)CCCCCC.F[P-](F)(F)(F)(F)F	1.42 and 1.54	1.24 and 1.37	1.07 and 1.13	1.05 and 1.07	–
C#CCCC [1-pentyne] + CCCCCCCCCCCCCC[P+](CCCCCC)(CCCCCC)CCCCCC.F[P-](F)(F)(F)(F)F	1.52 and 1.44	1.28 and 1.27	1.05 and 1.15	1.03 and 1.09	–
CC(C)=O [acetone] + CCCCCCCCCCCCCC[P+](CCCCCC)(CCCCCC)CCCCCC.F[P-](F)(F)(F)(F)F	0.648 and 0.694	0.517 and 0.507	0.388 and 0.404	0.371 and 0.381	–
c1ccccc1 [benzene] + CCCCCCCCCCCCCC[P+](CCCCCC)(CCCCCC)CCCCCC.F[P-](F)(F)(F)(F)F	0.659 and 0.705	0.543 and 0.553	0.438 and 0.448	0.415 and 0.419	–
CCC(C)=O [butanone] + CCCCCCCCCCCCCC[P+](CCCCCC)(CCCCCC)CCCCCC.F[P-](F)(F)(F)(F)F	0.735 and 0.677	0.542 and 0.524	0.41 and 0.396	0.373 and 0.375	–
C1CCCCCC1 [cycloheptane] + CCCCCCCCCCCCCC[P+](CCCCCC)(CCCCCC)CCCCCC.F[P-](F)(F)(F)(F)F	1.57 and 1.6	1.3 and 1.33	1.08 and 1.1	1.03 and 1.05	–
C1CCCCC1 [cyclohexane] + CCCCCCCCCCCCCC[P+](CCCCCC)(CCCCCC)CCCCCC.F[P-](F)(F)(F)(F)F	1.46 and 1.48	1.23 and 1.21	1.05 and 0.969	0.991 and 0.951	–
C1CCCCCCCC1 [cyclononane] + CCCCCCCCCCCCCC[P+](CCCCCC)(CCCCCC)CCCCCC.F[P-](F)(F)(F)(F)F	1.88 and 1.89	1.57 and 1.6	1.32 and 1.33	1.23 and 1.3	–

SMILES	activity coefficient ([1]; 313.15 K)	activity coefficient ([1]; 333.15 K)	activity coefficient ([1]; 353.15 K)	activity coefficient ([1]; 363.15 K)	mass density [2] [kg/m3]
C1CCCCCCC1 [cyclooctane] + CCCCCCCCCCCCCC[P+](CCCCCC)(CCCCCC)CCCCCC.F[P-](F)(F)(F)(F)F	1.64 and 1.8	1.4 and 1.44	1.17 and 1.2	1.11 and 1.14	–
C1CCCC1 [cyclopentane] + CCCCCCCCCCCCCC[P+](CCCCCC)(CCCCCC)CCCCCC.F[P-](F)(F)(F)(F)F	1.35 and 1.34	1.08 and 1.14	0.901 and 0.941	0.883 and 0.871	–
CCCCCCCCCC [decane] + CCCCCCCCCCCCCC[P+](CCCCCC)(CCCCCC)CCCCCC.F[P-](F)(F)(F)(F)F	3.28 and 3.32	2.62 and 2.9	2.29 and 2.31	2.19 and 2.24	–
CCO [ethanol] + CCCCCCCCCCCCCC[P+](CCCCCC)(CCCCCC)CCCCCC.F[P-](F)(F)(F)(F)F	2.21 and 2.31	1.51 and 1.49	0.989 and 1.01	0.893 and 0.911	–
CCc1ccccc1 [ethylbenzene] + CCCCCCCCCCCCCC[P+](CCCCCC)(CCCCCC)CCCCCC.F[P-](F)(F)(F)(F)F	0.961 and 1	0.783 and 0.835	0.63 and 0.694	0.626 and 0.642	–
CCCCCCC [heptane] + CCCCCCCCCCCCCC[P+](CCCCCC)(CCCCCC)CCCCCC.F[P-](F)(F)(F)(F)F	2.25 and 2.19	1.81 and 2	1.65 and 1.67	1.55 and 1.65	–
C=CCCCC [hex-1-ene] + CCCCCCCCCCCCCC[P+](CCCCCC)(CCCCCC)CCCCCC.F[P-](F)(F)(F)(F)F	1.67 and 1.7	1.41 and 1.44	1.14 and 1.26	1.13 and 1.17	–
CCCCCC [hexane] + CCCCCCCCCCCCCC[P+](CCCCCC)(CCCCCC)CCCCCC.F[P-](F)(F)(F)(F)F	1.96 and 2.07	1.69 and 1.79	1.48 and 1.5	1.43 and 1.47	–
CO [methanol] + CCCCCCCCCCCCCC[P+](CCCCCC)(CCCCCC)CCCCCC.F[P-](F)(F)(F)(F)F	2.12 and 2.14	1.41 and 1.44	0.938 and 0.984	0.855 and 0.881	–
CCCCCCCCC [nonane] + CCCCCCCCCCCCCC[P+](CCCCCC)(CCCCCC)CCCCCC.F[P-](F)(F)(F)(F)F	2.77 and 3.04	2.43 and 2.47	2.09 and 2.05	1.98 and 2	–
C=CCCCCCC [oct-1-ene] + CCCCCCCCCCCCCC[P+](CCCCCC)(CCCCCC)CCCCCC.F[P-](F)(F)(F)(F)F	2.02 and 2.2	1.75 and 1.79	1.51 and 1.48	1.44 and 1.43	–
CCCCCCCC [octane] + CCCCCCCCCCCCCC[P+](CCCCCC)(CCCCCC)CCCCCC.F[P-](F)(F)(F)(F)F	2.53 and 2.49	2.12 and 2.18	1.87 and 1.83	1.81 and 1.74	–
CCCCC [pentane] + CCCCCCCCCCCCCC[P+](CCCCCC)(CCCCCC)CCCCCC.F[P-](F)(F)(F)(F)F	1.77 and 1.92	1.52 and 1.55	1.27 and 1.29	1.19 and 1.25	–
CCCc1ccccc1 [propylbenzene] + CCCCCCCCCCCCCC[P+](CCCCCC)(CCCCCC)CCCCCC.F[P-](F)(F)(F)(F)F	1.14 and 1.1	0.939 and 0.949	0.799 and 0.779	0.777 and 0.735	–
Cc1ccccc1 [toluene] + CCCCCCCCCCCCCC[P+](CCCCCC)(CCCCCC)CCCCCC.F[P-](F)(F)(F)(F)F	0.772 and 0.814	0.671 and 0.639	0.535 and 0.541	0.506 and 0.516	–
CCCCCCCCCCCCCC[P+](CCCCCC)(CCCCCC)CCCCCC.F[P-](F)(F)(F)(F)F [trihexyl(tetradecyl)phosphonium hexafluorophosphate(V)]	–	–	–	–	987.15 ± 1.1
